Experiment [1] has as its target T1, human DGKα (Homo sapiens (Human), UniProt P23743). In words: DGKα LIPGLO assay (extruded liposome substrate, ADP-Glo luminescence). The format is biochemical. Particulars: liposome assay; read-out: DGK alpha LIPGLO IC50.
The target of experiment [2] is human DGKζ (Homo sapiens (Human), UniProt Q13574). In words: DGKζ LIPGLO assay (extruded liposome substrate, ADP-Glo luminescence). The format is biochemical.
In experiment [3] the target is T1, human DGKα. The experiment in a line: DGKα ADPGLO assay (detergent/lipid micelle substrate). It is filed as biochemical. The protocol:
DGK Alpha ADPGLO (Truncated) IC50 (uM)
The detergent/lipid micelle was prepared by combining 15 g phosphatidylserine (Avanti 840035P) and 1 g diacylglycerol (8008110) and dissolving into 150 mL chloroform in a 2 L round bottom flask. Chloroform was removed under high vacuum by rotary evaporation. […] The lipid/detergent solution was split into 5 mL aliquots and stored at −80° C.
(In general: ADP-Glo turns the ADP formed in a reaction into a luminescent signal.)

For experiment [4], the system named is human venous whole blood (IFN-γ). In words: Human whole blood IFN-γ assay. It is filed as cell-based. The protocol: Human venous whole blood (22.5 μL per well), obtained from healthy donors, was pre-treated with compounds for one hour at 37° C. in a humidified 95% air/5% CO2 incubator. The blood was stimulated with 2.5 μL anti-human CD3 and anti-CD28 mAb at a final concentration of 1 μg/mL each for 24 hours at 37° C. IFN-γ in the supernatants was measured using AlphLISA kit (Cat #AL217).

The mark [5] stands for this setting: liposome assay, read-out: DGK zeta LIPGLO IC50.
The mark [6] stands for this setting: truncated DGK alpha, read-out: DGK alpha ADPGLO (Truncated) IC50.
[7] abbreviates: whole blood, normalized to 3 μM reference compound as 100% activation, read-out: IFN-γ Whole Blood Normalized EC50.
The mark [8] stands for this setting: liposome (LIPGLO) assay, read-out: DGK zeta (liposome assay) IC50.
The mark [9] stands for this setting: ADPGLO assay, read-out: DGK alpha ADPGLO IC50.
Where [10] appears, read: human whole blood, anti-CD3 plus anti-CD28 stimulation, 24 hours, read-out: IFN-γ Whole Blood EC50.

This passage reports IC50 and EC50 results from US11584747B2, “Substituted pyridopyrimidinonyl compounds useful as T cell activators” (BRISTOL-MYERS SQUIBB COMPANY, priority 2019, dated 2023).

Like-named read-outs stand apart in the source and are kept apart here.

Broadly, the IC50 is the concentration needed to halve the response being measured. The term EC50 denotes the concentration needed to bring the measured effect to its halfway point.

human DGKζ, sequence (Q13574 other isoform, or with tags, fused parts or gaps): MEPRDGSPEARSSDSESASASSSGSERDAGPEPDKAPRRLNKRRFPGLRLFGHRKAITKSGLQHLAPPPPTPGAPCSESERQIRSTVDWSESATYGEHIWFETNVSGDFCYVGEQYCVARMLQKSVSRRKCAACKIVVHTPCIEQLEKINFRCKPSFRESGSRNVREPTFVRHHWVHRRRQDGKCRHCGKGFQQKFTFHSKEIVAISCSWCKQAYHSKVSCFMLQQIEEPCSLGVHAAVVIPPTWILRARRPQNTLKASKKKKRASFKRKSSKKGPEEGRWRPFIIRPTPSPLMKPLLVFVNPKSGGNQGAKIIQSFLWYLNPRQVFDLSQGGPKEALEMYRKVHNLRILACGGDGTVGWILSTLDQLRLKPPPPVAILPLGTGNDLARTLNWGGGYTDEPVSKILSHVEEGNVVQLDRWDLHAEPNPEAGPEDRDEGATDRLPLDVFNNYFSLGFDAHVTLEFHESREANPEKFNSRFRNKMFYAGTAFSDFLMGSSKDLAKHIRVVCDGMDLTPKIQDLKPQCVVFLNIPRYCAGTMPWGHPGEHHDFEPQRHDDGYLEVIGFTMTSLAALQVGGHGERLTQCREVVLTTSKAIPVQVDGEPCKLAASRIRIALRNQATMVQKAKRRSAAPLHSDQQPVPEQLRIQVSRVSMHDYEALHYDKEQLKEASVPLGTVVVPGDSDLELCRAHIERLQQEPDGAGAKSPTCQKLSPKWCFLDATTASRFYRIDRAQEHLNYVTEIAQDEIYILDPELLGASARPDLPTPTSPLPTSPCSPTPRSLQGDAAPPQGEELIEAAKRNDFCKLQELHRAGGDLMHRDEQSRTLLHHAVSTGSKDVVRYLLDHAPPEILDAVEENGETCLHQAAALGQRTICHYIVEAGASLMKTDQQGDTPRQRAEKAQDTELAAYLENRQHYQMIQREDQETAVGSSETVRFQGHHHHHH
T1 sequence (P23743 whole entry, looked up): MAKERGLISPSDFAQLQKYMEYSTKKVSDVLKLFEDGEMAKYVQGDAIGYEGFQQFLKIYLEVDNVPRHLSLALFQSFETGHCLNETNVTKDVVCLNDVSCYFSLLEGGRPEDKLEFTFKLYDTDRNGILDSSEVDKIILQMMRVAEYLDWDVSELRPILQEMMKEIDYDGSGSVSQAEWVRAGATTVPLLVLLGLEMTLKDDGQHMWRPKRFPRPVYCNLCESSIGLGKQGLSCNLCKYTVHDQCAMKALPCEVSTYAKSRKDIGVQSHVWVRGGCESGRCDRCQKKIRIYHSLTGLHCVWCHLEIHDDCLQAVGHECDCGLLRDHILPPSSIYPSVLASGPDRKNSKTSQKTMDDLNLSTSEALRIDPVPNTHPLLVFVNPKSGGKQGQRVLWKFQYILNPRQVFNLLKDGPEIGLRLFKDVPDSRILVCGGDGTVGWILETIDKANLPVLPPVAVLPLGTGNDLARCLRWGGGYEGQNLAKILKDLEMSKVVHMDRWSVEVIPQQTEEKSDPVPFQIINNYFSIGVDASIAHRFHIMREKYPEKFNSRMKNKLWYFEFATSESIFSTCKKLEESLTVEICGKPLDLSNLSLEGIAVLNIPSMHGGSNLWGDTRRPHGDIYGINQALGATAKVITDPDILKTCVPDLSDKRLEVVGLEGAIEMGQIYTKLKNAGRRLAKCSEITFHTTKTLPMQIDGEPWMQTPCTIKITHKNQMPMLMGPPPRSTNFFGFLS

`CC[C@H]1CN(C(C)c2ccc(OC(F)(F)F)cc2)[C@H](CC)CN1c1nc(=O)n(C)c2ccc(C#N)nc12` (single isomer, unassigned) [Example 9]: the IC50 in experiment [1] came to 7 nM; in experiment [2] (setting [5]), 48 nM.

`CC[C@H]1CN(C(C)c2ccc(OC(F)(F)F)cc2)[C@H](CC)CN1c1nc(=O)n(C)c2ccc(C#N)nc12` (single isomer, unassigned) [Example 10]: the IC50 came out at 370 nM in experiment [1] and 970 nM in experiment [2] (setting [5]).

In the case of `CC[C@H]1CN(C(C)c2ccc(OC)cc2)[C@H](CC)CN1c1nc(=O)n(C)c2ccc(C#N)nc12` (single isomer, unassigned) [Example 16], the IC50 in experiment [1] amounted to 45 nM; in experiment [2] (setting [5]), 37 nM.

For `CC[C@H]1CN(C(C)c2ccc(OC(C)C)cc2)[C@H](CC)CN1c1nc(=O)n(C)c2ccc(C#N)nc12` (single isomer, unassigned) [Example 18], the IC50 in experiment [1] is 30 nM; in experiment [2] (setting [5]), 25 nM.

`CC[C@@H]1CN(c2nc(=O)n(C)c3ccc(C#N)nc23)[C@@H](C)CN1C(c1ccc(F)cc1)c1nc(C2CC2)cs1` (single isomer, unassigned) [Example 50]: the IC50 in experiment [1] worked out at 110 nM; in experiment [2] (setting [5]), 37 nM.

Turning to `CC(c1cc(F)c(F)c(F)c1)N1C[C@H](C)N(c2nc(=O)n(C)c3ccc(C#N)nc23)C[C@H]1C` (single isomer, unassigned) [Example 138], the IC50 in experiment [1] is 2410 nM.

On to `CC[C@H]1CN(C(C)c2ccc(CO)cc2)[C@H](CC)CN1c1nc(=O)n(C)c2ccc(C#N)nc12` (stereo partly drawn) [Example 271, 4-((2S,5R)-2,5-Diethyl-4-(1-(4-(hydroxymethyl)phenyl)ethyl)piperazin-1-yl)-1-methyl-2-oxo-1,2-dihydropyrido[3,2-d]pyrimidine-6-carbonitrile], for which the IC50 in experiment [2] (setting [5]) amounted to 12700 nM; in experiment [3] (setting [6]), 10 nM. The EC50 in experiment [4] (setting [7]) came to 14400 nM.

`CC[C@H]1CN(C(C)c2ccc(CN3CCOC(C)(C)C3)cc2)[C@H](CC)CN1c1nc(=O)n(C)c2ccc(C#N)nc12` (stereo partly drawn) [Example 275, 4-((2S,5R)-4-(1-(4-((2,2-dimethylmorpholino)methyl)phenyl)ethyl)-2,5-diethylpiperazin-1-yl)-1-methyl-2-oxo-1,2-dihydropyrido[3,2-d]pyrimidine-6-carbonitrile]: the 50% inhibitory concentration (IC50) is 150 nM in experiment [2] (setting [5]) and 530 nM in experiment [3] (setting [6]). The EC50 in experiment [4] (setting [7]) is 35 nM.

Regarding `CC[C@H]1CN(C(C)c2ccc(CN3CCOC(C)(C)C3)cc2)[C@H](CC)CN1c1nc(=O)n(C)c2ccc(C#N)nc12` (stereo partly drawn) [Example 276, 4-((2S,5R)-4-(1-(4-((2,2-dimethylmorpholino)methyl)phenyl)ethyl)-2,5-diethylpiperazin-1-yl)-1-methyl-2-oxo-1,2-dihydropyrido[3,2-d]pyrimidine-6-carbonitrile], the figures for the IC50 in experiment [2] (setting [5]) and in experiment [3] (setting [6]) were 1380 nM and 120 nM, respectively. For the same compound, the EC50 in experiment [4] (setting [7]) amounted to 3560 nM.

As to `CC[C@H]1CN(C(C)c2ccc(CN3CCN(C(C)=O)CC3)cc2)[C@H](CC)CN1c1nc(=O)n(C)c2ccc(C#N)nc12` (stereo partly drawn) [Example 284, 4-((2S,5R)-4-(1-(4-((4-acetylpiperazin-1-yl)methyl)phenyl)ethyl)-2,5-diethylpiperazin-1-yl)-1-methyl-2-oxo-1,2-dihydropyrido[3,2-d]pyrimidine-6-carbonitrile], the figures for the IC50 in experiment [2] (setting [5]) and in experiment [3] (setting [6]) were 25100 nM and 3170 nM, respectively. In experiment [4] (setting [7]), the EC50 worked out at 13000 nM.

With `CC[C@@H]1CN(c2nc(=O)n(C)c3ccc(C#N)nc23)[C@@H](C)CN1C(c1ccc(F)cc1)c1csc(C(F)(F)F)n1` (stereo partly drawn) [Example 296, 4-((2S,5R)-5-ethyl-4-((4-fluorophenyl)(2-(trifluoromethyl)thiazol-4-yl)methyl)-2-methylpiperazin-1-yl)-1-methyl-2-oxo-1,2-dihydropyrido[3,2-d]pyrimidine-6-carbonitrile], the IC50 worked out at 140 nM in experiment [2] (setting [5]) and 460 nM in experiment [3] (setting [6]). Besides, the EC50 in experiment [4] (Homo sapiens, whole blood, normalized to 3 μM reference compound as 100% activation, read-out: IFN-γ Whole Blood Normalized EC50) came to 36 nM.

`CC[C@@H]1CN(c2nc(=O)n(C)c3ccc(C#N)nc23)[C@@H](C)CN1C(c1ccc(F)cc1)c1csc(C(F)(F)F)n1` (stereo partly drawn) [Example 297, 4-((2S,5R)-5-ethyl-4-((4-fluorophenyl)(2-(trifluoromethyl)thiazol-4-yl)methyl)-2-methylpiperazin-1-yl)-1-methyl-2-oxo-1,2-dihydropyrido[3,2-d]pyrimidine-6-carbonitrile]: the IC50 in experiment [2] (setting [5]) and in experiment [3] (setting [6]) was 110 nM each time. In experiment [4] (setting [7]), the EC50 is 53 nM.

`CC[C@@H]1CN(c2nc(=O)n(C)c3ccc(C#N)nc23)[C@@H](C)CN1C(C)c1ccc2oc(=O)n(C)c2c1` (stereo partly drawn) [Example 298, 4-((2S,5R)-5-ethyl-2-methyl-4-(1-(3-methyl-2-oxo-2,3-dihydrobenzo[d]oxazol-5-yl)ethyl)piperazin-1-yl)-1-methyl-2-oxo-1,2-dihydropyrido[3,2-d]pyrimidine-6-carbonitrile]: the IC50 in experiment [2] (setting [5]) turned out to be 380 nM; in experiment [3] (setting [6]), 480 nM. The EC50 in experiment [4] (setting [7]) came out at 420 nM.

As for `CC[C@@H]1CN(c2nc(=O)n(C)c3ccc(C#N)nc23)[C@@H](C)CN1C(C)c1ccc2oc(=O)n(C)c2c1` (stereo partly drawn) [Example 299, 4-((2S,5R)-5-ethyl-2-methyl-4-(1-(3-methyl-2-oxo-2,3-dihydrobenzo[d]oxazol-5-yl)ethyl)piperazin-1-yl)-1-methyl-2-oxo-1,2-dihydropyrido[3,2-d]pyrimidine-6-carbonitrile], the figures for the IC50 in experiment [2] (setting [5]) and in experiment [3] (setting [6]) were 4680 nM and 1280 nM, respectively. The EC50 in experiment [4] (setting [7]) was 3460 nM.

`CCC(c1ccc(OCC2CC2)cc1)N1C[C@H](C)N(c2nc(=O)n(C)c3ccc(C#N)nc23)C[C@H]1CC` (stereo partly drawn) [Example 309, 4-((2S,5R)-4-(1-(4-(cyclopropylmethoxy)phenyl)propyl)-5-ethyl-2-methylpiperazin-1-yl)-1-methyl-2-oxo-1,2-dihydropyrido[3,2-d]pyrimidine-6-carbonitrile]: the figures for the IC50 in experiment [2] (setting [8]) and in experiment [3] (setting [9]) were 850 nM and 350 nM, respectively. Further, in experiment [4] (setting [10]), the EC50 amounted to 1480 nM.

On to `CC[C@H]1CN(C(C)c2nc(C3CC3)no2)[C@H](CC)CN1c1nc(=O)n(C)c2ccc(C#N)nc12` (stereo partly drawn) [Example 361, 4-((2S,5R)-4-(1-(3-cyclopropyl-1,2,4-oxadiazol-5-yl)ethyl)-2,5-diethylpiperazin-1-yl)-1-methyl-2-oxo-1,2-dihydropyrido[3,2-d]pyrimidine-6-carbonitrile], for which the IC50 in experiment [2] (setting [8]) came to 22 nM; in experiment [3] (setting [9]), 5 nM. For the same compound, the EC50 in experiment [4] (setting [10]) came out at 260 nM.

Take `CC[C@H]1CN(C(C)c2nc(C3CC3)no2)[C@H](CC)CN1c1nc(=O)n(C)c2ccc(C#N)nc12` (stereo partly drawn) [Example 362, 4-((2S,5R)-4-(1-(3-cyclopropyl-1,2,4-oxadiazol-5-yl)ethyl)-2,5-diethylpiperazin-1-yl)-1-methyl-2-oxo-1,2-dihydropyrido[3,2-d]pyrimidine-6-carbonitrile]: the values for the IC50 in experiment [2] (setting [8]) and in experiment [3] (setting [9]) were 590 nM and 61 nM, respectively. Moreover, the EC50 in experiment [4] (setting [10]) came out at 3090 nM.

Consider `CC(c1ccc(CN2C[C@@H]3C[C@H]2CO3)cc1)N1C[C@H](C)N(c2nc(=O)n(C)c3ccc(C#N)nc23)C[C@H]1C` (stereo partly drawn) [Example 387, 4-((2S,5R)-4-(1-(4-(((1S,4S)-2-oxa-5-azabicyclo[2.2.1]heptan-5-yl)methyl)phenyl)ethyl)-2,5-dimethylpiperazin-1-yl)-1-methyl-2-oxo-1,2-dihydropyrido[3,2-d]pyrimidine-6-carbonitrile], for which the figures for the IC50 in experiment [2] (setting [8]) and in experiment [3] (setting [9]) were 6070 nM and 1930 nM, respectively. Further, the EC50 in experiment [4] (setting [10]) came to 770 nM.

Regarding `CC(c1ccc(CN2C[C@@H]3C[C@H]2CO3)cc1)N1C[C@H](C)N(c2nc(=O)n(C)c3ccc(C#N)nc23)C[C@H]1C` (stereo partly drawn) [Example 388, 4-((2S,5R)-4-(1-(4-(((1S,4S)-2-oxa-5-azabicyclo[2.2.1]heptan-5-yl)methyl)phenyl)ethyl)-2,5-dimethylpiperazin-1-yl)-1-methyl-2-oxo-1,2-dihydropyrido[3,2-d]pyrimidine-6-carbonitrile], the IC50 came to 45700 nM in experiment [2] (setting [8]) and 1750 nM in experiment [3] (setting [9]). In experiment [4] (setting [10]), the EC50 came to 20000 nM.

On to `CC[C@H]1CN(C(C)c2ccc(C(F)(F)F)cc2)[C@H](CC)CN1c1nc(=O)n(C)c2ccc(OCCOC)nc12` (stereo partly drawn) [Example 433, 4-((2S,5R)-2,5-diethyl-4-(1-(4-(trifluoromethyl)phenyl)ethyl)piperazin-1-yl)-6-(2-methoxyethoxy)-1-methylpyrido[3,2-d]pyrimidin-2(1H)-one], for which the IC50 in experiment [2] (setting [8]) and in experiment [3] (setting [9]) was 125000 nM each time. For the same compound, in experiment [4] (Homo sapiens, 24 h, human whole blood, anti-CD3 plus anti-CD28 stimulation, 24 hours, read-out: IFN-γ Whole Blood EC50), the EC50 is 20000 nM.

In the case of `CCC(c1ccc(C(F)(F)F)cc1)N1C[C@H](CC)N(c2nc(=O)n(C)c3ccc(OC)nc23)C[C@H]1CC` (stereo partly drawn) [Example 436, 4-((2S,5R)-2,5-diethyl-4-(1-(4-(trifluoromethyl)phenyl)propyl)piperazin-1-yl)-6-methoxy-1-methylpyrido[3,2-d]pyrimidin-2(1H)-one], the IC50 was determined as 250000 nM in experiment [2] (setting [8]) and 12200 nM in experiment [3] (setting [9]). Besides, in experiment [4] (setting [10]), the EC50 was 20000 nM.
